Key:
Assay in all cases: Kinase Profiler 10 μM panel
[1] = biological target: Met(Y1248C)(h) (Homo sapiens (Human), UniProt P08581, Y1230C)
Procedure: (§1) In vitro kinase assays were conducted using Kinase Profiler services provided by Eurofins. The experimental method was as follows: the small molecule compound to be tested (0.001-10 μM), the protein kinase to be tested were incubated with a buffer containing substrate, 10 mM magnesium acetate, and [γ-^33P-ATP], the reaction was started by adding Mg\TPmix, after incubation for a period of time at room temperature, a 3% phosphate solution was added to the buffer to stop the reaction. Subsequently, 10 μL of the reaction mixture was quantitatively pipetted onto P30 filter paper, which was washed three times with 75 mM phosphate solution and then once with methanol. The P30 filter paper was air-dried and scintillation fluid was added for scintillation counting.

[2] = biological target: ASK1(h) (Homo sapiens (Human), UniProt Q99683)
Procedure: as §1

[3] = biological target: Flt3(D835Y)(h) (Homo sapiens (Human), UniProt P36888, D835Y)
Procedure: as §1

[4] = biological target: Arg(h) (Homo sapiens (Human), UniProt P42684)
Procedure: as §1

[5] = biological target: Rse(h) (Homo sapiens (Human), UniProt Q06418)
Procedure: as §1

[6] = biological target: PKCθ(h) (Homo sapiens (Human), UniProt Q04759)
Procedure: as §1

[7] = biological target: PKCη(h) (Homo sapiens (Human), UniProt P24723)
Procedure: as §1

[8] = biological target: SAPK2a(T106M)(h) (Homo sapiens (Human), UniProt Q16539, T106M)
Sequence of SAPK2a(T106M)(h) (Q16539 whole entry T106M): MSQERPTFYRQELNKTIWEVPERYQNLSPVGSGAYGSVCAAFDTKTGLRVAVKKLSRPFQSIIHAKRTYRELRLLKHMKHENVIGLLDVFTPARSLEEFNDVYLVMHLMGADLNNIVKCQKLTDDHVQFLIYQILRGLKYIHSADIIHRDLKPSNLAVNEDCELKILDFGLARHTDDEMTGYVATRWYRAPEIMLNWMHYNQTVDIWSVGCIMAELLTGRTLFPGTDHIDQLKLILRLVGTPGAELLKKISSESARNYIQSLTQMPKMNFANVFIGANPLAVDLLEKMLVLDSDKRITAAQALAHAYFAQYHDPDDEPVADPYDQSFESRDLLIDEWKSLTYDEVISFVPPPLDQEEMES
Procedure: as §1

[9] = biological target: CHK1(h) (Homo sapiens (Human), UniProt O14757)
Procedure: as §1

[10] = biological target: NEK4(h) (Homo sapiens (Human), UniProt P51957)
Procedure: as §1

[11] = biological target: mTOR(h) (Homo sapiens (Human), UniProt P42345)
Procedure: as §1

[12] = biological target: Itk(h) (Homo sapiens (Human), UniProt Q08881)
Procedure: as §1

[13] = biological target: mTOR/FKBP12(h) (Homo sapiens (Human), UniProt P42345)
Procedure: as §1

[14] = biological target: SAPK3(h) (Homo sapiens (Human), UniProt P53778)
Procedure: as §1

[15] = biological target: PDGFRβ(h) (Homo sapiens (Human), UniProt P09619)
Procedure: as §1

[16] = biological target: cKit(V560G)(h) (Homo sapiens (Human), UniProt P10721, V560G)
Sequence of cKit(V560G)(h) (P10721 26-976 V560G): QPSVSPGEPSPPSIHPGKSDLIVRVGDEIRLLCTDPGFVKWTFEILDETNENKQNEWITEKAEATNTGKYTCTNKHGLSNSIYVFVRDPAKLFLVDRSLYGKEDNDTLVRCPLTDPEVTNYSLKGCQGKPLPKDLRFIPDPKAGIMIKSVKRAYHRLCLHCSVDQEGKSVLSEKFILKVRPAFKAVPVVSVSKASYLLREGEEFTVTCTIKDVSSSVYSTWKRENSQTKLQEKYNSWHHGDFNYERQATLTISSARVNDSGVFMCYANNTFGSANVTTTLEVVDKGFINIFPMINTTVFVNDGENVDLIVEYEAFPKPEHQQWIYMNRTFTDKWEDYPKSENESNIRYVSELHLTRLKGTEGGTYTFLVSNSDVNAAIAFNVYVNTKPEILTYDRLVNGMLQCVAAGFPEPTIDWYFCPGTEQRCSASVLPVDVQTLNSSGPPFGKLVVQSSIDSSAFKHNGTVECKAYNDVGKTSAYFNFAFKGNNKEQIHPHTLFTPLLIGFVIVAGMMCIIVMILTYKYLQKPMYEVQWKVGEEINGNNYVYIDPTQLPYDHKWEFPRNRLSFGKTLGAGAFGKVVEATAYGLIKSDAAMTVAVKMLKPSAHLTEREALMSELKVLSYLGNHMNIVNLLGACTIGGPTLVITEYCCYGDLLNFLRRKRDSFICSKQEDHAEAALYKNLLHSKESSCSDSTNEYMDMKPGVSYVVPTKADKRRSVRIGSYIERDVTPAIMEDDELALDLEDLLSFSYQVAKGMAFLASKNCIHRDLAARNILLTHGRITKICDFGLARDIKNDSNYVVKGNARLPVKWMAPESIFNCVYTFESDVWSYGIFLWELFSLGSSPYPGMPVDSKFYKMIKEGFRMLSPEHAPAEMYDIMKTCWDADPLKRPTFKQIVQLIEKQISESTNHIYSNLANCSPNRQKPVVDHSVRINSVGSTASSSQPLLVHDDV
Procedure: as §1

[17] = biological target: MINK(h) (Homo sapiens (Human), UniProt Q8N4C8)
Procedure: as §1

[18] = biological target: PKG1β(h) (Homo sapiens (Human), UniProt Q13976)
Procedure: as §1

[19] = biological target: CK1γ2(h) (Homo sapiens (Human), UniProt P78368)
Procedure: as §1

[20] = biological target: PAK4(h) (Homo sapiens (Human), UniProt O96013)
Procedure: as §1

[21] = biological target: PKR(h) (Homo sapiens (Human), UniProt P19525)
Sequence of PKR(h) (P19525 whole entry): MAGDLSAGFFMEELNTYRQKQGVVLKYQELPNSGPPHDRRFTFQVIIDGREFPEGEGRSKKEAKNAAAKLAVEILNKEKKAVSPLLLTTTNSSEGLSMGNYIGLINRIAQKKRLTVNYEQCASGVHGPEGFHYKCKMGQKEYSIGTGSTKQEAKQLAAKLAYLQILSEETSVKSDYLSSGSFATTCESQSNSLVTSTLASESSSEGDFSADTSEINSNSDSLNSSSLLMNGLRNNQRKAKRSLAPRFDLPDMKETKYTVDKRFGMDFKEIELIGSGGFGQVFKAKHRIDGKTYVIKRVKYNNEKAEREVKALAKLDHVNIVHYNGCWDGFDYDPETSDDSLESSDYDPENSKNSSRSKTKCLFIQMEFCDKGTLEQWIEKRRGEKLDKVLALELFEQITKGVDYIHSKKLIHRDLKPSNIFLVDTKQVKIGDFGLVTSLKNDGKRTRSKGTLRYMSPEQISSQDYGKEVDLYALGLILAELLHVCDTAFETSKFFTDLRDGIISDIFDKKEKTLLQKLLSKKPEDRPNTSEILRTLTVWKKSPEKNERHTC
Procedure: as §1

[22] = biological target: Ret (V804L)(h) (Homo sapiens (Human), UniProt P07949, V804L)
Procedure: as §1

[23] = biological target: TSSK4(h) (Homo sapiens (Human), UniProt Q6SA08)
Procedure: as §1

[24] = biological target: CLIK1(h) (Homo sapiens (Human), UniProt Q8TDR2)
Procedure: The experimental method was as follows: the small molecule compound to be tested (0.001-10 μM), the protein kinase to be tested were incubated with a buffer containing substrate, 10 mM magnesium acetate, and [γ-^33P-ATP], the reaction was started by adding Mg\TPmix, after incubation for a period of time at room temperature, a 3% phosphate solution was added to the buffer to stop the reaction. Subsequently, 10 μL of the reaction mixture was quantitatively pipetted onto P30 filter paper, which was washed three times with 75 mM phosphate solution and then once with methanol. The P30 filter paper was air-dried and scintillation fluid was added for scintillation counting.

[25] = biological target: Rsk3(h) (Homo sapiens (Human), UniProt Q15349)
Procedure: as §1

[26] = biological target: ErbB4(h) (Homo sapiens (Human), UniProt Q15303)
Procedure: as §1

[27] = biological target: PKCβI(h) (Homo sapiens (Human), UniProt P05771)
Sequence of PKCβI(h) (P05771 whole entry): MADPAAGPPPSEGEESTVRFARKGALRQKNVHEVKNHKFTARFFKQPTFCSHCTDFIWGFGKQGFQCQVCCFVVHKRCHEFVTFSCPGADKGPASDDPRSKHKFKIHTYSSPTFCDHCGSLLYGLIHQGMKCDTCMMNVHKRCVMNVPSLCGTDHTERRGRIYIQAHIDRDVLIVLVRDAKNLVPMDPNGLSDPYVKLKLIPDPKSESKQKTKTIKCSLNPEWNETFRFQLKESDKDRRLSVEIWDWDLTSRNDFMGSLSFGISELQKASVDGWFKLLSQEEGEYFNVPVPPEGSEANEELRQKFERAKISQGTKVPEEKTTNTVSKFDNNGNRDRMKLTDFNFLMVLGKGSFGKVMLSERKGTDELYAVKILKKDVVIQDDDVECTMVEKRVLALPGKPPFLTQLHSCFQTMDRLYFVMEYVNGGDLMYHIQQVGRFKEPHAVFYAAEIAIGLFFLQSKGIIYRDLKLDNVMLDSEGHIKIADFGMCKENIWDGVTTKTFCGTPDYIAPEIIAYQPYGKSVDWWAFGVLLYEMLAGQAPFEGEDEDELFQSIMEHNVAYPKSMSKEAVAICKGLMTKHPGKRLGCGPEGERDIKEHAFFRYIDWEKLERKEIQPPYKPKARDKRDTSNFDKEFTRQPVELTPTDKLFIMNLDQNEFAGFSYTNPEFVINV
Procedure: as §1

[28] = system: ChaK1(h)
Procedure: as §1

[29] = biological target: HIPK4(h) (Homo sapiens (Human), UniProt Q8NE63)
Sequence of HIPK4(h) (Q8NE63 whole entry): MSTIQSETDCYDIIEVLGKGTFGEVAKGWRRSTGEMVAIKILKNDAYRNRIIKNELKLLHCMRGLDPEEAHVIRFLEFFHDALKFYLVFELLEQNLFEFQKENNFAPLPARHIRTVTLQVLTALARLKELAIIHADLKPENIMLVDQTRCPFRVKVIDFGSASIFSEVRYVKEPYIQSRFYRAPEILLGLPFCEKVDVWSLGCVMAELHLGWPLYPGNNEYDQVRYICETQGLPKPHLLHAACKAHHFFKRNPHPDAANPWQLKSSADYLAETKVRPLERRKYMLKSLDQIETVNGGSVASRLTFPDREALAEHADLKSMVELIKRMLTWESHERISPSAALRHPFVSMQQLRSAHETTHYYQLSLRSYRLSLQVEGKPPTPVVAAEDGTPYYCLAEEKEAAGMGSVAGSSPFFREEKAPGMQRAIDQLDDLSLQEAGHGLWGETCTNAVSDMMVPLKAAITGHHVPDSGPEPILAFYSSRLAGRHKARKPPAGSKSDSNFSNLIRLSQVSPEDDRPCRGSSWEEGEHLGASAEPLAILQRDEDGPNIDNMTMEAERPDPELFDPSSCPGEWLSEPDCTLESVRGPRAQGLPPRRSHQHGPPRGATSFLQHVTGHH
Procedure: as §1

[30] = biological target: ATM(h) (Homo sapiens (Human), UniProt Q13315)
Procedure: as §1

[31] = biological target: MAP4K5(h) (Homo sapiens (Human), UniProt Q9Y4K4)
Procedure: as §1

Sequence of Arg(h) (P42684 whole entry): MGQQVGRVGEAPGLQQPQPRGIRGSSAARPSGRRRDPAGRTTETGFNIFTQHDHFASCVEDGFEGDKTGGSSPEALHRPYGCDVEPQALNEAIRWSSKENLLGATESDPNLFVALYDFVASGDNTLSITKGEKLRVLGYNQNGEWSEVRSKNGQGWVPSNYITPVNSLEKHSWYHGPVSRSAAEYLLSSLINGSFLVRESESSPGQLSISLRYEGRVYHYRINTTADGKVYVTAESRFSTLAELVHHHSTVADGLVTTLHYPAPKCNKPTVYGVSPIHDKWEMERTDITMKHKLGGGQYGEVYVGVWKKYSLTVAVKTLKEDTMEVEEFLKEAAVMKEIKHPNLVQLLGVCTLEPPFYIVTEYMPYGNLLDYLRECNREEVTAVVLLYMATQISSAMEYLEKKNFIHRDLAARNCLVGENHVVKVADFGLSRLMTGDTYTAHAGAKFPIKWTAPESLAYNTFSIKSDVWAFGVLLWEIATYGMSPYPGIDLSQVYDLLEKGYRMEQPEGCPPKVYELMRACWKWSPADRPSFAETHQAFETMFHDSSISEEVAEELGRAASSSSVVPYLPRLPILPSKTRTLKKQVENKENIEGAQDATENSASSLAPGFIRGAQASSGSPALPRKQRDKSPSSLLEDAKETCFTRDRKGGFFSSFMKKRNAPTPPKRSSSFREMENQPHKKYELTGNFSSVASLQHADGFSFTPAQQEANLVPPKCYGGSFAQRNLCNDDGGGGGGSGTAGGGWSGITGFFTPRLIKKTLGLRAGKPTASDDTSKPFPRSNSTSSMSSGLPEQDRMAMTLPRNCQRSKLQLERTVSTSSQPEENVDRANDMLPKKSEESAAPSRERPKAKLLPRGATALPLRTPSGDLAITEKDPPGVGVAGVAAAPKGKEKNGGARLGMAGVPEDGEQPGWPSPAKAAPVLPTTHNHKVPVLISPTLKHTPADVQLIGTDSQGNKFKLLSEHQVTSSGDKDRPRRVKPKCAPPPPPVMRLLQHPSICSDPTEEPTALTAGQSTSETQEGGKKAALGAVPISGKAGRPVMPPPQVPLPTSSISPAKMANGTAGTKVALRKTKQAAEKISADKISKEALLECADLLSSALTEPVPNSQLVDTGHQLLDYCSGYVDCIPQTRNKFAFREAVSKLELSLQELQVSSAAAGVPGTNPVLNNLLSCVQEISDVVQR
Sequence of Met(Y1248C)(h) (P08581 956-1390 Y1230C limits assumed): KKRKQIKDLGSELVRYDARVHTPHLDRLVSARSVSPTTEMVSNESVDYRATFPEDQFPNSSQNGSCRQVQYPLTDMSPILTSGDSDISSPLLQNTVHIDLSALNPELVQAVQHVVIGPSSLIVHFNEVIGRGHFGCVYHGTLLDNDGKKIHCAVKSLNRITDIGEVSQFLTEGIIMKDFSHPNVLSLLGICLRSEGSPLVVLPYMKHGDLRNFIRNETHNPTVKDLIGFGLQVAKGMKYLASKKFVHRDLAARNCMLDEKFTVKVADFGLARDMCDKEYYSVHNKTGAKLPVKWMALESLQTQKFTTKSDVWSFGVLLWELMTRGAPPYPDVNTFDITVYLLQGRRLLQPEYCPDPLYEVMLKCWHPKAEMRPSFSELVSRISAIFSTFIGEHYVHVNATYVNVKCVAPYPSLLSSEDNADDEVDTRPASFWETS

Compound: C[C@H](NC(=O)c1cn(C)c2ccc(-c3ccn4nc(NC(=O)C5CC5)nc4c3)cc12)c1cccc(F)c1 [Compound 94, (S)-5-(2-(cyclopropanecarboxamido)-[1,2,4]triazolo[1,5-a]pyridin-7-yl)-N-(1-(3-fluorophenyl)ethyl)-1-methyl-1H-indole-3-carboxamide]
- Inhibition ratio/% [1]: 11%
- Inhibition ratio/% [2]: 38%
- Inhibition ratio/% [3]: 12%
- Inhibition ratio/% [4]: 42%
- Inhibition ratio/% [5]: 53%
- Inhibition ratio/% [6]: 7%
- Inhibition ratio/% [7]: 27%
- Inhibition ratio/% [8]: −20%
- Inhibition ratio/% [9]: −2%
- Inhibition ratio/% [10]: 27%
- Inhibition ratio/% [11]: −11%
- Inhibition ratio/% [12]: 92%
- Inhibition ratio/% [13]: 36%
- Inhibition ratio/% [14]: 46%
- Inhibition ratio/% [15]: 49%
- Inhibition ratio/% [16]: 65%
- Inhibition ratio/% [17]: 53%
- Inhibition ratio/% [18]: 0%
- Inhibition ratio/% [19]: 50%
- Inhibition ratio/% [20]: 5%
- Inhibition ratio/% [21]: 19%
- Inhibition ratio/% [22]: 50%
- Inhibition ratio/% [23]: 49%
- Inhibition ratio/% [24]: 22%
- Inhibition ratio/% [25]: 27%
- Inhibition ratio/% [26]: 63%
- Inhibition ratio/% [27]: 6%
- Inhibition ratio/% [28]: 66%
- Inhibition ratio/% [29]: 68%
- Inhibition ratio/% [30]: −15%
- Inhibition ratio/% [31]: 6%

Compound: C[C@H](NC(=O)c1c[nH]c2ccc(-c3ccc4nc(NC(=O)C5CC5)sc4c3)cc12)c1cccc(F)c1 [Compound 34, (S)-5-(2-(cyclopropanecarboxamido)benzo[d]thiazol-6-yl)-N-(1-(3-fluorophenyl)ethyl)-1H-indole-3-carboxamide]
- Inhibition ratio [1]: 99%
- Inhibition ratio [2]: 12%
- Inhibition ratio [3]: 82%
- Inhibition ratio [4]: 89%
- Inhibition ratio [5]: 69%
- Inhibition ratio [6]: −24%
- Inhibition ratio [7]: −3%
- Inhibition ratio [8]: 63%
- Inhibition ratio [9]: 2%
- Inhibition ratio [10]: 30%
- Inhibition ratio [11]: −7%
- Inhibition ratio [12]: 99%
- Inhibition ratio [13]: 10%
- Inhibition ratio [14]: 84%
- Inhibition ratio [15]: 9%
- Inhibition ratio [16]: 88%
- Inhibition ratio [17]: 93%
- Inhibition ratio [18]: 7%
- Inhibition ratio [19]: 9%
- Inhibition ratio [20]: 10%
- Inhibition ratio [21]: 11%
- Inhibition ratio [22]: 99%
- Inhibition ratio [23]: 13%
- Inhibition ratio [24]: 22%
- Inhibition ratio [25]: 49%
- Inhibition ratio [26]: 22%
- Inhibition ratio [27]: 27%
- Inhibition ratio [28]: 5%
- Inhibition ratio [29]: 95%
- Inhibition ratio [30]: 3%
- Inhibition ratio [31]: 64%

Source: patent US20230365546A1, “5-SUBSTITUTED INDOLE 3-AMIDE DERIVATIVES, PREPARATION METHOD AND USE THEREOF” (ORIGIANT PHARMACEUTICAL CO., LTD, priority 2020, published 2023)
